Values quoted from earlier work in article PMC7250496 (Journal of medicinal chemistry, 2020).

Assays:
[1] = molecular target: mMC5R (Mus musculus, UniProt P41149); settings: previously reported ref 80
[2] = molecular target: mMC3R (Mus musculus, UniProt P33033); settings: previously reported ref 80
mMC3R, sequence (P33033 whole entry): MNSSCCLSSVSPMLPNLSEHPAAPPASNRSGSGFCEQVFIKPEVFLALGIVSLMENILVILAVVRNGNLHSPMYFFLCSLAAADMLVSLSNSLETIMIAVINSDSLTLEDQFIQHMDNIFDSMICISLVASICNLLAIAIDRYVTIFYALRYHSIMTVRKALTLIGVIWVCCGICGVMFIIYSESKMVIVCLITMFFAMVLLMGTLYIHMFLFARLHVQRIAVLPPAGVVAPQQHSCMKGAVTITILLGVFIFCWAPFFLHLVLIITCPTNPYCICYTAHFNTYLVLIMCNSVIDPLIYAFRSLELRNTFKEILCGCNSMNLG

mMC5R, sequence (P41149 whole entry): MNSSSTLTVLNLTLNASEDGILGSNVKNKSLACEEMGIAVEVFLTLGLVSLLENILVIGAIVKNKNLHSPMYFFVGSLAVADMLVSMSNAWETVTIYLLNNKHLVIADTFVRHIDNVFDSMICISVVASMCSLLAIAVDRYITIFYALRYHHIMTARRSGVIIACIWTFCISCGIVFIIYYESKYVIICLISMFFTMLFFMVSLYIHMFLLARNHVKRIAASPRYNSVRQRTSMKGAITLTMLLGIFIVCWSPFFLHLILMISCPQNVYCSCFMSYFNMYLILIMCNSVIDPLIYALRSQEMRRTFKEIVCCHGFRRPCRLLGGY

SMILES: C[C@@H]1NC(=O)[C@H](CN)NC(=O)[C@H](Cc2ccccc2)NC(=O)[C@H](Cc2ccccc2)NC(=O)[C@H](CCCNC(=N)N)NC(=O)[C@@H]2CCCN2C(=O)[C@H]2CCCN2C(=O)[C@H](Cc2ccccc2)NC1=O [Compound 2, c[Pro-Arg-Phe-Phe-Dap-Ala-Phe-DPro]]
- mMC5R Inverse Agonist, percent decrease from basal [1]: Inverse Agonist −15%
- mMC3R pA2 ([2]; antagonist, Schild analysis, agonist NDP-MSH): 6.5 ± 0.09
- EC50 ([2]; read-out: mMC3R EC50, agonist): > 100 µM
